Measurements published in patent US6579689B2, “Modulation of γ-secretase activity” (Scios Inc., priority 2000, dated 2003).

Test system: γ-secretase
Assay: Cell-free 0.5% CHAPS solubilized γ-secretase activity, Aβ production (Aβ40 ELISA)
Format: biochemical, monkey
Details: for enhancement of γ-secretase activity by other phospholipids, compared with cardiolipin: concentration not given
Description: To produce membranes containing high levels of CT99, ˜10^9 CV-1 monkey fibroblast cells were infected with VV99 for 48 hours. After this period, the cells were harvested, washed with saline, and pelleted by low speed centrifugation at 1200 rpm for 10 minutes at 4° C. The cell pellet was resuspended in 25 mls 0.25 M sucrose, 10 mM Tris-HCl pH 7.5, 1 mM EDTA then homogenized with a Dounce homogenizer using a tight fitting pestle. The sample is centrifuged at 2300 rpm for 10 minutes at 4° C. This homogenization step was repeated.
The resulting pellets containing nuclei and large debris were discarded and the post-nuclear supernatants were combined. The supernatant fraction was centrifuged at 100,000×g for 30-60 minutes at 4° C. to collect membranes. The membranes were washed in buffer containing 0.2% saponin, 10 mM Tris-HCl pH 7.5, 1 mM EDTA to remove contaminating proteolytic activity, followed by centrifugation at 100,000×g for 30 minutes at 4° C. This step was repeated. Membranes at this stage can be used directly for assaying γ-secretase activity, or may be further treated to provide solubilized γ-secretase activity.
The saponin-washed membrane fraction was next solubilized with 0.5% CHAPS prepared in 10 mM Tris-HCl pH 7.5 with 5 mM EDTA. Aliquots of membranes containing γ-secretase activity were treated with detergent at 0° C. for 1 hour after which the treated samples were centrifuged at 100,000×g for 1 hour at 4° C. The resulting supernatants (soluble fractions) were assayed for Aβ production. 0.5% CHAPS was successful in solubilizing and preserving the γ-secretase activity.
To produce Aβ protein in vitro, an aliquot of the saponin-washed fraction or an aliquot of the 0.5% CHAPS treated soluble fraction was first adjusted to pH 7.0 by making a 1:10 dilution of the fraction with 1 M Tris-HCl pH 7.0 for a final concentration of 100mM Tris-HC1. The neutralized samples were incubated at 37° C. for various lengths of time, typically ranging from 0 (control) to 24 hours. After incubation, the samples were assayed for Aβ production as follows.
Wells of a 96-microtiter plate were coated overnight at 4° C. with 100 μl/well of a 4 μg/ml solution of purified monoclonal antibody 1702.1 diluted in phosphate buffered saline (PBS). The 1702.1 monoclonal antibody specifically recognizes the Aβ40 isoform. […] The plate is washed three times with PBS 0.05% Tween 20 and the amount of 1101.1 second antibody bound to the well is detected with HRP-conjugated Streptavidin (Zymed) using a tetramethylbenzidine substrate (Sigma). The resulting colormetric reaction is quantified by reading the plate at OD^450nm. The amount of Aβ40 present in the test sample is calculated from known amounts of synthetic Aβ40 peptide standard run in the ELISA. […]

Compound | enhancement of γ-secretase activity by other phospholipids, compared with cardiolipin | enhancement of γ-secretase activity (Aβ production) by added phospholipid (1 μM cardiolipin, FIG. 4)
CCCCCCCCCCCCCCCC(=O)OC[C@H](COP(=O)([O-])OCC[N+](C)(C)C)OC(=O)CCCCCCCCCCCCCCC [1,2 dipalmitoyl-5-glycerol-3-phosphocholine] | comparable results | –
phosphotidylcholine | comparable results | –
phosphotidylserine | comparable results | –
cardiolipin | – | nearly equivalent to the activity originally present in the membranes prior to solubilization
